In patent US20070212360A1, “Modulation of mitochondrial oxygen consumption for therapeutic purposes” (priority 2006, published 2007):

Columns and labels:
Su.86 tumors = assay: Tumor growth delay, Su.86 xenografts; type: in vivo, mouse; settings: tirapazamine followed by echinomycin at 24 hours, 6 cycles; compared to echinomycin followed by tirapazamine
Protocol: (§1) FIG. 10. Pharmacologic inhibition of HIF1 or PDK1 enhances the response of tumor xenografts to the hypoxic cytotoxin tirapazamine. For all experiments, treatment was initiated when the mean tumor volume was 100-200 mm^3. (a) RKO tumor bearing mice were treated with 0.12 mg/kg echinomycin ip followed by 30 mg/kg tirapazamine ip at 24 hours, followed by a rest day for 3 cycles. Single agents were given at the same dose, on the same schedule. (b) RKO tumor bearing mice were treated with 50 mg/kg DCA ip followed by 20 mg/kg tirapazamine ip at 4 hours daily for 14 days. Single agents were given at the same dose, on the same schedule. (c,d,e) RKO (c), RKOShHIF1α (d), or Su.86 (e) tumor bearing mice were treated with echinomycin plus tirapazamine as described above for 6 cycles (Ech+TPZ), or tirapazamine followed by echinomycin at 24 hours followed by a rest day for 6 cycles (TPZ+Ech). For all experiments, arrows indicate when treatment was stopped.
Cell lines and tumor xenografts. RKO human colon carcinoma cells and Su.86 human pancreatic carcinoma cells were obtained from the American Type Culture Collection (ATCC, Manassas, Va.). The RKOShHIF1α cell line in which HIF1α is stably knocked down by shRNA has been described previously. RKO and immortalized MEF cells were grown in Dulbecco's Modified Eagle's Media (DMEM) supplemented with 10% fetal bovine serum (FBS). […]

[1] = system: RKO and RKOShHIF1α tumors; assay: Oxygen consumption of freshly explanted RKO tumor xenografts; type: in vivo, mouse; settings: 0.12 mg/kg echinomycin ip 24 h prior; vs PBS controls
Protocol: (§2) FIG. 7. Inhibition of HIF1 and PDK1 increases oxygen consumption in vitro and in vivo. (a) Western blots of extracts from RKO and Su.86 cells exposed to normoxia (N) or hypoxia (H) (0.5% O2) for 24 h in the presence or absence of 2 ng/ml echinomycin probed for the indicated proteins. (b) Oxygen consumption rates of RKO and RKOShHIF1α cells (left) and Su.86 cells (right) after 24 h treatment with normoxia or hypoxia (0.5% O2) with or without 2 ng/ml echinomycin. Data are normalized to normoxic samples. (c) Relative oxygen consumption of RKO cells treated with hypoxia (0.5% O2) for 24 h in the presence of increasing concentrations of echinomycin. (d) Oxygen consumption rates of freshly explanted tumor tissue from RKO (n=16) and RKOShHIF1α (n=8) xenografts. (e) Oxygen consumption rates of RKO and RKOShHIF1 tumors from mice treated with 0.12 mg/kg echinomycin ip 24 h prior (n=8), or 50 mg/kg DCA ip 4 h prior (n=8). Data is normalized to PBS treated controls (n=8-16). (*) indicate a significant difference relative to control (p<0.05).
Cell lines and tumor xenografts. […]
Oxygen consumption measurements. […] Oxygen consumption was measured in a 0.5 ml volume using an Oxytherm electrode unit (Hansatech, Norfolk, UK). […] Oxygen consumption was measured as above in a 1 ml volume and normalized to tissue weight.

[2] = system: RKO and RKOShHIF1α tumors; assay: Tumor growth delay, RKO and RKOShHIF1α xenografts; type: in vivo, mouse
Protocol: as §1
Cell lines and tumor xenografts. RKO human colon carcinoma cells and Su.86 human pancreatic carcinoma cells were obtained from the American Type Culture Collection (ATCC, Manassas, Va.). The RKOShHIF1α cell line in which HIF1α is stably knocked down by shRNA has been described previously. RKO and immortalized MEF cells were grown in Dulbecco's Modified Eagle's Media (DMEM) supplemented with 10% fetal bovine serum (FBS). Su.86 cells were grown in RPMI 1640 medium supplemented with 10% FBS. Cells were exposed to hypoxia by placing culture dishes into an Invivo2 humidified hypoxia workstation (Ruskin Technologies, Bridgend, UK) at 0.5% O2. Echinomycin (a gift of A. Giaccia, Stanford University) was included in the media at the indicated concentrations. Tumor xenografts were established by injecting 5×10^6 cells for the RKO lines or 1×10^7 cells for the Su.86 line sc into the flanks of 6-8 week old female nude mice. To monitor tumor growth, caliper measurements were made of two perpendicular diameters, and the formula (d1)(d2)(d2)(0.52) was used to calculate tumor volume. […]

[3] = system: HIF1 targets PDK1, Bnip3, and Bnip3L in RKO and Su.86 human tumor cells; assay: Western blot of HIF1 target proteins in hypoxic tumor cells; type: cell-based; settings: RKO and Su.86 cells, 0.5% O2 24 h, 2 ng/ml echinomycin
Protocol: as §2, with “Data is normalized to PBS treated controls (n=8-16). (*) indicate a significant difference relative to control (p<0.05).” left out
Western blots. In brief, cells were harvested directly in RIPA buffer containing protease inhibitors, protein concentrations were quantified (Pierce), 25-50 μg of total protein was electrophoresed on a reducing Tris-Tricine gel, and electroblotted to PVDF membrane. […] Primary antibodies were detected with species-specific secondary antibodies labeled with Alkaline Phosphatase (Vector labs) (1:3000) and visualized with ECF (Amersham) on a Storm 860 phosphoimager (Molecular Devices).

Structure (SMILES): CS[C@H]1SC[C@H]2C(=O)N(C)[C@@H](C(C)C)C(=O)OC[C@@H](NC(=O)c3cnc4ccccc4n3)C(=O)N[C@@H](C)C(=O)N(C)[C@@H]1C(=O)N(C)[C@@H](C(C)C)C(=O)OC[C@@H](NC(=O)c1cnc3ccccc3n1)C(=O)N[C@@H](C)C(=O)N2C [echinomycin]
- effect on growth of Su.86 tumors, reversed schedule (Su.86 tumors): little effect
- tumor oxygen consumption, RKO wildtype tumors [1]: significantly increased
- tumor oxygen consumption, RKOShHIF1 tumors [1]: no effect
- tumor growth delay of combination compared to single agents, RKO tumors ([2]; 0.12 mg/kg echinomycin ip followed at 24 h by 30 mg/kg tirapazamine ip, rest day, 3 cycles): greater than additive
- effect on tumor growth, RKOShHIF1 tumors ([2]; echinomycin plus tirapazamine, regardless of the order the drugs were given, 6 cycles): no significant effect
- effect on growth of RKO tumors, reversed schedule ([2]; tirapazamine followed by echinomycin at 24 hours, 6 cycles, compared to echinomycin followed by tirapazamine): little effect
- hypoxic induction of PDK1, Bnip3, and Bnip3L (immunoblot) [3]: blocked
